Series [1] can be described thus: The compound was evaluated for its solubility in lactate buffer at pH 3. In kind it is ADME.
Series [2] has as its system Rattus norvegicus. Kind of series: The compound was evaluated for its PAF-induced vascular permeability in rat when dosed orally. The settings on record: po. In kind it is functional.
Series [3] concerns the target Platelet-activating factor receptor (Rattus norvegicus) (UniProt P46002). Kind of series: Ability to block the effect of exogenously administered PAF upon intravenous administration in PAF-induced rat skin permeability assay. It is filed as functional, organism-based.
Series [4] is described as follows: The compound was evaluated for its bioavailability in rat. In kind it is ADME, organism-based. The settings on record: in vivo.
The subject of series [5] is Cavia porcellus. Kind of series: The compound was evaluated for its PAF-induced vascular permeability in guinea pig when dosed intravenously. In kind it is functional. The settings on record: iv.
In series [6] the test system is Cavia porcellus. Kind of series: The compound was evaluated for its PAF-induced vascular permeability in guinea pig when dosed orally. In kind it is functional. As to conditions: po.
The test system of series [7] is Rattus norvegicus. Kind of series: The compound was evaluated for its PAF-induced vascular permeability in rat when dosed intravenously. It is filed as functional. As to conditions: iv.
Series [8] deals with Platelet-activating factor receptor (Homo sapiens, UniProt P25105). Kind of series: The compound was evaluated for its binding affinity against PAF receptor in human platelet.
The nature of series [9]: The compound was evaluated for its bioavailability in monkey. As to conditions: primates, in vivo. In kind it is ADME, organism-based.
The nature of series [10]: The bioavailability in rat was evaluated. As to conditions: in vivo. It is filed as ADME, organism-based.
Series [11] relates to Cavia porcellus. Kind of series: The compound was evaluated for PAF-induced vascular permeability in guinea pig when dosed orally. It is filed as functional. As to conditions: po.
The target in series [12] is Platelet-activating factor receptor (Rattus norvegicus) (UniProt P46002). Kind of series: Tested in vivo for to block the effect of exogenously administered PAF upon oral administration in PAF-induced rat skin permeability assay. It is filed as functional, organism-based.
Series [13] is described as follows: The bioavailability in monkey was evaluated. In kind it is ADME, organism-based. The settings on record: primates, in vivo.
Series [14] concerns Cavia porcellus. Kind of series: The compound was evaluated for PAF-induced vascular permeability in guinea pig when dosed intravenously. It is filed as functional. As to conditions: iv.
Series [15] in a line: The solubility in lactate buffer at pH 3 was evaluated. In kind it is ADME.

≈ marks a conversion by molar mass, not a printed value.

12 molecules from ChEMBL document CHEMBL1131207, “Discovery and evaluation of a series of 3-acylindole imidazopyridine platelet-activating factor antagonists” (J Med Chem, 1998) can be followed below.

In general, solubility refers to how much of the substance goes into solution per volume. In general, ED50 refers to the dose at which the effect has come halfway, by size or by number of responders. Broadly, the bioavailability is the share of a dose that reaches the circulation, judged against a reference dose that is usually intravenous. By Ki is commonly meant a dissociation constant, usually derived from enzyme kinetics or from competition with a known ligand.

Sequence of Platelet-activating factor receptor (Rattus norvegicus) (P46002 whole entry): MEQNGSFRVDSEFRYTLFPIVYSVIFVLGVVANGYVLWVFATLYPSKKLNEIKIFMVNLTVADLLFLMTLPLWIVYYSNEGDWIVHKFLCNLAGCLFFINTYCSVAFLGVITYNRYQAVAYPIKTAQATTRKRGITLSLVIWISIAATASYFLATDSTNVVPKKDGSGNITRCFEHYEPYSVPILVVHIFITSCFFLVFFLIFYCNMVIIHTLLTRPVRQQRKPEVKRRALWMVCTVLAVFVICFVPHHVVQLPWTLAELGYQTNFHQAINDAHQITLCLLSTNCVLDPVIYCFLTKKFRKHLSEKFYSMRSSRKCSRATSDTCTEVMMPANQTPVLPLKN
Sequence of Platelet-activating factor receptor (P25105 whole entry): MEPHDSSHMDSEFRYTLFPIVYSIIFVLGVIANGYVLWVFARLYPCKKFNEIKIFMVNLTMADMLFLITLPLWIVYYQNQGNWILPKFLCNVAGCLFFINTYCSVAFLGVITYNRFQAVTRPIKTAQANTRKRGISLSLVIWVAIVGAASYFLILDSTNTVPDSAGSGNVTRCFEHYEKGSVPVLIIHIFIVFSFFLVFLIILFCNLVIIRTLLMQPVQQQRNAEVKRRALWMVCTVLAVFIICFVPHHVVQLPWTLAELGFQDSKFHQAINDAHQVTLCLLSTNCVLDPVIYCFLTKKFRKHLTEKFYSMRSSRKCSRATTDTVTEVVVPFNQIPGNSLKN

`Cc1nc2cnccc2n1Cc1ccc(C(=O)c2cn(C(=O)N(C)C)c3cc(-c4ccc(F)cc4)ccc23)cc1` gave a solubility in [1] of 0.12 mg/mL (≈ 0.226 mM). Moreover, the ED50 is 0.5 mg/kg in series [2] and 0.068 mg/kg in series [3].
Turning to `CC(=O)OC[n+]1cccc([C@H]2SCc3c(C(=O)c4cn(C(=O)N(C)C)c5cc(-c6ccc(F)cc6)ccc45)ccn32)c1.[Cl-]`, the bioavailability in series [4] is 46%; in [9], 36%. The ED50 in series [5] is 0.09 mg/kg; in series [6], 0.08 mg/kg; in series [7], 0.006 mg/kg; in [2], 0.08 mg/kg. This molecule also returned a Ki in series [8] of 0.98 nM.
As for `C#Cc1cccc2c1c(C(=O)c1ccc(Cn3c(C)nc4cnccc43)c(F)c1)cn2C(=O)N(C)C`, the results for the bioavailability in series [10] and in [13] were 49% and 56%, respectively. Moreover, the 50% effective dose (ED50) in [11] was determined as 0.29 mg/kg; in series [12] it was 0.094 mg/kg; in series [3] it was 0.003 mg/kg; in series [14], 0.016 mg/kg. The Ki in [8] came out at 0.57 nM. In series [15], this molecule gave a solubility above 20 mg/mL.
For the molecule `CCOC(=O)[C@H](CC(C)C)N(C)S(=O)(=O)c1ccc(Cn2c(C)nc3cnccc32)cc1` [LEXIPAFANT], the solubility in series [1] was above 20 mg/mL. In addition, the ED50 amounted to 0.027 mg/kg in series [5], 10.3 mg/kg in [6], 0.02 mg/kg in series [7] and 0.8 mg/kg in series [2]. In [8], this molecule returned an inhibition constant (Ki) of 0.38 nM.
As to `Cc1nc2cnccc2n1Cc1ccc(C(=O)c2cn(C(=O)N(C)C)c3cccc(OC(=O)N(C)C)c23)cc1F`, the ED50 in [12] was determined as 2.7 mg/kg; in series [3], 0.005 mg/kg.
With `COc1cccc2c1c(C(=O)c1ccc(Cn3c(C)nc4cnccc43)cc1)cn2C(=O)N(C)C`, the figures for the 50% effective dose (ED50) in [12] and in series [3] were 0.22 mg/kg and 0.007 mg/kg, respectively.
Turning to `COC(=O)c1cc(C#Cc2ccccc2)cc2c1c(C(=O)c1ccc(Cn3c(C)nc4cnccc43)cc1)cn2C(=O)N(C)C`, the 50% effective dose (ED50) came to 0.6 mg/kg in series [12] and 0.004 mg/kg in series [3].
On the same counts, the results for `Cc1cccc2c1c(C(=O)CN1CCC(n3c(C)nc4cnccc43)CC1)cn2C(=O)N(C)C` are 0.14 mg/kg and 0.005 mg/kg.
On the same counts, the results for `Cc1nc2cnccc2n1Cc1ccc(C(=O)c2cn(C(=O)N(C)C)c3cccc(C(=O)N(C)C)c23)cc1` are 1.3 mg/kg and 0.028 mg/kg.
Take `CCc1cccc2c1c(C(=O)c1ccc(Cn3c(C)nc4cnccc43)cc1)cn2C(=O)N(C)C`: the median effective dose (ED50) is 0.078 mg/kg in series [12] and 0.003 mg/kg in [3].
For the molecule `COC(=O)c1cccc2c1c(C(=O)c1ccc(Cn3c(C)nc4cnccc43)c(F)c1)cn2C(=O)N(C)C`, the ED50 in series [12] came out at 0.36 mg/kg; in [3] it was 0.006 mg/kg.
On the same counts, the results for `CCOCCn1cc(C(=O)c2ccc(Cn3c(C)nc4cnccc43)cc2)c2c(C(=O)OC)cccc21` are 1.1 mg/kg and 0.012 mg/kg.
